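Where inhibition never reached the appropriate level, the endpoint shown equals the highest concentration tested. Otherwise, values were interpolated linearly from a five-concentration, 48-hour dose response in 96-well plates. Abbreviation: GI50, concentration required for 50% inhibition of growth.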 The source made the active and inactive calls. No stated cut-off is given here; in the data, active = GI50 up to about 1.1 µM and inactive = higher.
Legend:
Assay in all cases: NCI tumour cell line growth inhibition, 48 h
MDA-MB-435 = test system: MDA-MB-435
DU-145 = test system: DU-145
KM-20L2 = test system: KM-20L2
DMS-273 = test system: DMS-273
DLD-1 = test system: DLD-1
LXFL 529 = test system: LXFL 529
786-0 = test system: 786-0
HOP-18 = test system: HOP-18
RXF 631 = test system: RXF 631

| SMILES | GI50 (MDA-MB-435) | GI50 (DU-145) | GI50 (KM-20L2) | GI50 (DMS-273) | GI50 (DLD-1) | GI50 (LXFL 529) | GI50 (786-0) | GI50 (HOP-18) | GI50 (RXF 631) |
| --- | --- | --- | --- | --- | --- | --- | --- | --- | --- |
| CN(CCO)CCC1COc2ccccc2O1 (configuration not stated) | > 10 µM (inactive) | > 10 µM (inactive) |  |  |  |  |  |  |  |
| CCCCCCCCC[C@@H]1C[C@H](O)[C@H](Cc2ccccc2)N1C(=O)OC(C)(C)C |  |  | 17.1 µM (inactive) | 18.1 µM (inactive) | 18.3 µM (inactive) | 17.2 µM (inactive) |  |  |  |
| N#C/C(=C\c1ccc(Br)cc1)c1nc(-c2cc3ccccc3oc2=O)cs1 | 23.5 µM (inactive) | 15.7 µM (inactive) |  |  |  |  | 17 µM (inactive) |  |  |
| COc1cc(C2c3[nH]c4ccccc4c3[C@@H](Nc3ccc(F)cc3)[C@H]3COC(=O)N23)cc(OC)c1O (some centres not stated) | 2.5 µM (inactive) | 0.759 µM (active) |  |  |  |  |  |  |  |
| O=C1C[C@@H](C(=O)OCc2ccccc2)NC(=O)C[C@@H](C(=O)OCc2ccccc2)NC(=O)C[C@@H](C(=O)OCc2ccccc2)N1 | > 100 µM (inactive) | > 100 µM (inactive) |  |  |  |  | 21 µM (inactive) |  |  |
| CCCC(=O)OC[n+]1ccc2c(C)c3[nH]c4ccc(OC)cc4c3c(C)c2c1 |  |  | 0.226 µM (active) | 0.0586 µM (active) | 0.196 µM (active) | 0.498 µM (active) | 0.0953 µM (active) |  |  |
| COC(=O)[C@@H]1c2cc3c(c(O)c2[C@@H](OC)C[C@@]1(C)O)C(=O)c1c(O)cc2c(c1C3=O)OC1O[C@@]2(C)[C@H](O)[C@@H](N(C)C)[C@@H]1O |  |  | 0.175 µM (active) | 0.118 µM (active) | 1.86 µM (inactive) |  |  | 0.14 µM (active) |  |
| CC(C)(C)[Si](C)(C)OCC1CCC(n2cnc3c(N)ncnc32)O1 (configuration not stated) | 25.9 µM (inactive) | 73.8 µM (inactive) |  |  |  |  |  |  |  |
| COc1ccc(-c2cc(C(O)C3CCCCN3)c3ccccc3n2)cc1 (configuration not stated) | 3.73 µM (inactive) | 8.39 µM (inactive) |  |  |  |  | 8.34 µM (inactive) |  |  |
| CC1=C2C(=C[C@H]3[C@]4(C)CCCC(C)(C)[C@H]4CC[C@]34O[C@H]24)OC1=O | > 100 µM (inactive) | > 100 µM (inactive) |  |  |  |  | > 100 µM (inactive) |  |  |
| CC(C)CCC1CC2C(=O)N(c3ccccc3)C(=O)C2c2[nH]c3ccccc3c21 (configuration not stated) |  |  |  | 0.281 µM (active) | 2.18 µM (inactive) | 6.05 µM (inactive) | 2.88 µM (inactive) | 7.06 µM (inactive) | 1.26 µM (inactive) |
| COc1cc(C(C)c2cc3c(cc2OCCO)OCO3)cc(OC)c1OC (configuration not stated) |  |  | 1.43 µM (inactive) | 0.413 µM (active) | 1.71 µM (inactive) | 2.77 µM (inactive) |  | > 100 µM (inactive) |  |
| O=C(O)/C=C/c1c[nH]cn1 |  |  |  | > 500 µM (inactive) | > 500 µM (inactive) |  |  | > 500 µM (inactive) |  |
| CC1(C)N=C(N)N=C(N)N1c1ccc(Cl)cc1 | 1.79 µM (inactive) | 7.11 µM (inactive) |  |  |  |  | 0.598 µM (active) |  |  |
| CCOP(=O)(OCC)/C(C#N)=C/c1cccn1Cc1ccccc1 | 19.4 µM (inactive) | 43.2 µM (inactive) |  |  |  |  | 26.1 µM (inactive) |  |  |
| COc1ccc([I+]c2ccc(OC)cc2)cc1 | > 56.5 µM (inactive) | 99.5 µM (inactive) |  |  |  |  | 50.7 µM (inactive) |  |  |
| Brc1ccc(C2CC(c3cccc4ccccc34)=Nc3ccccc3S2)cc1 (configuration not stated) |  |  | 96.8 µM (inactive) | 80 µM (inactive) | 51.8 µM (inactive) | > 100 µM (inactive) |  |  |  |
| CC(=O)N(CCN1C(=O)c2ccccc2C1=O)CCN1C(=O)c2ccccc2C1=O |  |  | > 100 µM (inactive) | > 100 µM (inactive) | > 100 µM (inactive) | > 100 µM (inactive) | > 100 µM (inactive) |  |  |
| Cc1nnc2sc(N/N=C/c3ccccc3)nn12 | > 100 µM (inactive) | > 100 µM (inactive) |  |  |  |  | > 100 µM (inactive) |  |  |
| CC(NNC(=O)c1cc[n+]([BH2-]C#N)cc1)c1ccc(F)cc1 (configuration not stated) | > 100 µM (inactive) | > 100 µM (inactive) |  |  |  |  | > 100 µM (inactive) |  |  |
| C[C@H]1[C@@H]2C[C@@H]3O[C@@]34[C@H]3CCC5Cc6nc7c(nc6C[C@@]5(C)[C@]3(O)CC(=O)[C@@]24CO[C@]12OC(C)(C)C[C@@H]2O)CC1CC[C@@H]2C3=C[C@H]4O[C@@]5(OC(C)(CO)C[C@@H]5O)[C@H](C)[C@@]4(O)[C@]3(C)[C@@H](O)CC2[C@]1(C)C7 (some centres not stated) |  |  | 0.0378 µM (active) | 0.00345 µM (active) | 0.191 µM (active) |  |  | > 3.52 µM (inactive) |  |
| Clc1ncc(C(Cl)(Cl)Cl)nc1-c1ccccc1 | 1.77 µM (inactive) | 1.61 µM (inactive) |  |  |  |  | 1.95 µM (inactive) |  |  |
| Cn1c2ccccc2c(=O)c2c(O)cc3c(c21)C=CC(C)(C)O3 [NORACRONYCINE] |  |  | > 10.2 µM (inactive) | > 25 µM (inactive) | 19.4 µM (inactive) |  |  | 13.7 µM (inactive) |  |
| N#CSCC1COc2ccccc2O1 (configuration not stated) | > 10 µM (inactive) | > 10 µM (inactive) |  |  |  |  |  |  |  |
| CCOc1cc(C2CC(c3ccc(NS(=O)(=O)c4cc([N+](=O)[O-])ccc4C)cc3)=NN2S(=O)(=O)c2cc([N+](=O)[O-])ccc2C)ccc1O (configuration not stated) | 38.4 µM (inactive) | 43.8 µM (inactive) |  |  |  |  | 33.3 µM (inactive) |  |  |
| CCC1CN2CCC1CC2 (configuration not stated) |  |  | > 100 µM (inactive) | > 100 µM (inactive) | > 100 µM (inactive) |  |  | > 100 µM (inactive) |  |
| COc1ccc(-c2nnc3c4ccccc4sn23)cc1 |  |  | 29.2 µM (inactive) | 10.8 µM (inactive) |  | 23.7 µM (inactive) |  | 23.2 µM (inactive) |  |
| CC1(C)CNC(=O)C2(/C=N/C(C)(C)CNC(=O)C3(/C=N/1)CCCO3)CCCO2 (configuration not stated) | > 10 µM (inactive) | > 10 µM (inactive) |  |  |  |  | > 10 µM (inactive) |  |  |
| COc1c(Cl)cc(S(=O)O)cc1Cl |  |  |  |  | > 100 µM (inactive) | > 100 µM (inactive) |  |  |  |
| O=C(O)CCCCCCCCC(=O)O [SEBACIC ACID] |  |  | > 50 µM (inactive) | 50 µM (inactive) | 108 µM (inactive) |  |  | 387 µM (inactive) |  |

Source: ChEMBL document CHEMBL1201862, “PubChem BioAssay data set” (2004)
